Among the test systems are RPMI-8226 leukemia; HOP-92 NSCLC; OVCAR-5 ovarian; HL-60(TB) leukemia; HOP-62 NSCLC; SW-620 colon; CCRF-CEM leukemia; SK-MEL-28 melanoma; TK-10 renal; OVCAR-4 ovarian.
Common to all, as to experiment: NCI tumour cell line growth inhibition, 48 h

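Five concentrations, 48 hours, 96-well plates. The concentration for full growth arrest is given as TGI.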

On to `O=C(c1ccc(Cl)cc1)N(C(=S)N1CCN(c2ccccn2)CC1)c1ccccc1`, for which the TGI with RPMI-8226 leukemia, with HOP-92 NSCLC, with OVCAR-5 ovarian, with HL-60(TB) leukemia, with HOP-62 NSCLC and in the assay with SW-620 colon was more than 100 µM throughout. Further, the TGI with CCRF-CEM leukemia, in the assay on SK-MEL-28 melanoma, in the assay with TK-10 renal and with OVCAR-4 ovarian was more than 100 µM in each case.
As for `O=C1C=CC2(O[C@@H](Cc3ccccc3)[C@H](Cc3ccccc3)O2)C(SC(=O)c2ccccc2)C1` (stereo not given in full), the TGI with RPMI-8226 leukemia stood at 1.24 µM; in the assay with HOP-92 NSCLC, 3.05 µM; in the assay on OVCAR-5 ovarian, 1.74 µM; in the assay with HL-60(TB) leukemia, 4.82 µM; with HOP-62 NSCLC it was 2.68 µM; with SW-620 colon, 0.858 µM. Besides, the TGI in the assay with CCRF-CEM leukemia turned out to be 1.15 µM; with SK-MEL-28 melanoma, 3.44 µM; in the assay with TK-10 renal, 4.09 µM; in the assay on OVCAR-4 ovarian it was 4.4 µM.
As to `COc1ccc(N2CCN(c3ccc4c(c3)NCC(=O)N4)CC2)cc1`, the TGI in the assay on RPMI-8226 leukemia was 67.5 µM; in the assay on HOP-92 NSCLC it was 63.5 µM; in the assay with OVCAR-5 ovarian it was more than 100 µM; with HL-60(TB) leukemia, 47.5 µM; in the assay on HOP-62 NSCLC it was more than 100 µM; with SW-620 colon, more than 100 µM. In addition, the TGI in the assay on CCRF-CEM leukemia was more than 100 µM; in the assay on SK-MEL-28 melanoma, more than 100 µM; with TK-10 renal, more than 100 µM; in the assay on OVCAR-4 ovarian, 77.3 µM.
With `O=C(NCCO)c1c(O)c2ccccc2[nH]c1=O`, the TGI in the assay with RPMI-8226 leukemia, in the assay with HOP-92 NSCLC, in the assay on OVCAR-5 ovarian, in the assay on HL-60(TB) leukemia, in the assay with HOP-62 NSCLC and in the assay on SW-620 colon was more than 100 µM in each case. Also, the TGI in the assay on CCRF-CEM leukemia, in the assay with SK-MEL-28 melanoma, with TK-10 renal and in the assay with OVCAR-4 ovarian was more than 100 µM each time.
On to `COC(=O)C1(NC(=O)C(N)CC(=O)O)C(C)C1C` (stereo not given), for which the TGI in the assay on RPMI-8226 leukemia, in the assay on HOP-92 NSCLC, with OVCAR-5 ovarian, with HL-60(TB) leukemia, with HOP-62 NSCLC and with SW-620 colon was more than 100 µM in each case. Besides, the TGI in the assay on CCRF-CEM leukemia, with SK-MEL-28 melanoma, in the assay on TK-10 renal and in the assay on OVCAR-4 ovarian was more than 100 µM throughout.
As to `Clc1ccc(OCC2NC3C=CC32)cn1` (stereo not given), the TGI in the assay on RPMI-8226 leukemia, in the assay with HOP-92 NSCLC, in the assay with OVCAR-5 ovarian, in the assay on HL-60(TB) leukemia, in the assay with HOP-62 NSCLC and in the assay on SW-620 colon was more than 100 µM throughout. In addition, the TGI in the assay on CCRF-CEM leukemia, with SK-MEL-28 melanoma, in the assay on TK-10 renal and in the assay on OVCAR-4 ovarian was more than 100 µM throughout.
For the molecule `CCCCCCC(CCl)c1sc(-c2csc(CCNC(=O)OC(C)(C)C)n2)nc1C(=O)OC` (stereo not given), the TGI in the assay on RPMI-8226 leukemia is more than 100 µM; with HOP-92 NSCLC, 69.7 µM; with OVCAR-5 ovarian, more than 100 µM; in the assay with HL-60(TB) leukemia, more than 100 µM; in the assay with HOP-62 NSCLC it was more than 100 µM; with SW-620 colon, more than 100 µM. The TGI in the assay with CCRF-CEM leukemia was more than 100 µM; with SK-MEL-28 melanoma it was more than 100 µM; in the assay on TK-10 renal, more than 100 µM; in the assay on OVCAR-4 ovarian it was 78 µM.
As to `CC(O)(c1ccccc1)c1nccc2ccccc12` (stereo not given), the TGI is more than 100 µM with RPMI-8226 leukemia; 95.2 µM in the assay with HOP-92 NSCLC; more than 100 µM with OVCAR-5 ovarian; more than 100 µM with HL-60(TB) leukemia; more than 100 µM with HOP-62 NSCLC; more than 100 µM in the assay with SW-620 colon. The TGI in the assay on CCRF-CEM leukemia, with SK-MEL-28 melanoma, in the assay with TK-10 renal and in the assay with OVCAR-4 ovarian was more than 100 µM each time.
For the molecule `Cc1ccccc1NC(=S)N/N=C(/c1ccccc1)c1ccccn1`, the TGI with RPMI-8226 leukemia was 10.2 µM; in the assay on HOP-92 NSCLC, 13.2 µM; in the assay with OVCAR-5 ovarian, 10.6 µM; with HL-60(TB) leukemia it was 1.24 µM; in the assay on HOP-62 NSCLC, 11.5 µM; in the assay with SW-620 colon, 15.4 µM. Besides, the TGI was 11.6 µM with CCRF-CEM leukemia, 16.8 µM in the assay on SK-MEL-28 melanoma, 5.24 µM with TK-10 renal and 20.8 µM in the assay with OVCAR-4 ovarian.
As to `O=C1c2ccccc2C(=O)N1C(=S)c1ccccc1`, the TGI with RPMI-8226 leukemia, in the assay with HOP-92 NSCLC, with OVCAR-5 ovarian, in the assay on HL-60(TB) leukemia, in the assay with HOP-62 NSCLC and in the assay with SW-620 colon was more than 100 µM each time. Further, the TGI in the assay with CCRF-CEM leukemia, with SK-MEL-28 melanoma, in the assay with TK-10 renal and in the assay with OVCAR-4 ovarian was more than 100 µM each time.

The values above are taken from PubChem BioAssay (NCI).
